This passage reports maximum temperature rise results from patent US20090022675A1, “ESTERS WITH WARMING PROPERTIES” (priority 2007, published 2009).

The data set is described as follows: Warming properties: rise in temperature on mixing with water (heat of solution). The note with it: mixed with water; Hest G-18-O maximum when about 60% by weight is used. The format is physicochemical. The source says: When Hest G-18-O is mixed with water at ambient temperature, there is a rise in temperature. The rise in temperature ranges from about 5 degrees C. to about 15 degrees C.; it also ranges from about 8 degrees C. to about 12 degrees C. This rise in temperature is about 2-3 times more than that obtained with the same weight of glycerine (FIG. 1) or propylene glycol. The temperature rise reaches a maximum of about 12 degrees C. when about 60% by weight of Hest G-18-O is used. This compares to a maximum of only about 5 degrees C. for glycerine or propylene glycol.
The maximum amount of heat (though not the greatest rise in temperature) is obtained when the Hest G-18-O is dissolved in a large excess of water. If the Hest G-18-O, glycerine or propylene glycol is not anhydrous, some of its heat of solution will already have been dissipated. Correspondingly, smaller amounts of heat will be produced by further dilution.

On to `OCC(O)CO` [glycerine], for which the maximum temperature rise result is recorded as “about 5 degrees C”.

As for `CC(O)CO` (centres unmarked) [propylene glycol], the maximum temperature rise result was “about 5 degrees C”.
